Experimental data reported in EPA's ToxRefDB 2.

How the values were obtained:
dog [1] = conditions: Sub-acute repeat dose toxicity, beagle, Oral, Gavage/Intubation, dose end: 10 day, group: systemic
rat [2] = conditions: Sub-acute repeat dose toxicity; Oral; Gavage/Intubation; dose end: 10 day; group: systemic; systemic / in life observation / clinical signs / compulsive biting or licking + systemic / in life observation / clinical signs / …
dog [3] = conditions: Sub-acute repeat dose toxicity; beagle; Oral; Gavage/Intubation; dose end: 29 day; group: systemic; systemic / in life observation / clinical signs / defecation (diarrhea) + systemic / in life observation / clinical signs / emesis + …
rat [4] = conditions: Sub-acute repeat dose toxicity, sprague dawley, Oral, Gavage/Intubation, dose end: 13 day, group: systemic
dog [5] = conditions: Sub-acute repeat dose toxicity, beagle, Oral, Gavage/Intubation, dose end: 7 day, group: systemic
rat [6] = conditions: Sub-acute repeat dose toxicity, sprague dawley, Oral, Gavage/Intubation, dose end: 29 day, group: systemic
dog [7] = conditions: Sub-acute repeat dose toxicity, beagle, Oral, Gavage/Intubation, dose end: 1 month, group: systemic
mouse [8] = conditions: Subchronic oral toxicity in rodents, b6c3f1, Gavage/Intubation, dose end: 13 week, group: systemic
rat [9] = conditions: Subchronic oral toxicity in rodents, fischer, Gavage/Intubation, dose end: 13 week, group: systemic
rat [10] = conditions: Carcinogenicity, fischer, Oral, Gavage/Intubation, dose end: 103 week, group: systemic
rat [11] = conditions: Prenatal developmental toxicity study, other, Oral, Gavage/Intubation, dose end: 15 GD
rat [12] = conditions: Multigenerational reproductive toxicity study, wistar, Oral, Feed, dose end: 2 generation
rat [13] = conditions: Combined chronic toxicity/carcinogenicity, wistar, Oral, Feed, dose end: 24 month, group: systemic
rabbit = conditions: Prenatal developmental toxicity study, chinchilla, Oral, Gavage/Intubation, dose end: 18 GD
dog [14] = conditions: Chronic toxicity; beagle; Oral; Feed; dose end: 52 week; group: systemic; systemic / clinical chemistry / cholesterol / cholesterol + systemic / clinical chemistry / cytochrome p450, nos / cytochrome p450, nos
mouse [15] = conditions: Carcinogenicity, b6c3f1, Oral, Feed, dose end: 24 month, group: systemic
[16] = systemic / in life observation / body weight / body weight + systemic / in life observation / clinical signs / altered breathing rate + …
[17] = systemic / in life observation / clinical signs / salivation + systemic / in life observation / clinical signs / emesis
[18] = systemic / in life observation / body weight / body weight + systemic / in life observation / clinical signs / lacrimation + systemic / in …
[19] = systemic / organ weight / kidney / absolute + systemic / organ weight / liver / absolute + systemic / organ weight / spleen / absolute + …
[20] = systemic / in life observation / body weight / body weight + systemic / in life observation / food consumption / food consumption + systemic…
[21] = systemic / in life observation / clinical signs / emesis
[22] = systemic / in life observation / clinical signs / salivation + systemic / organ weight / liver / absolute + systemic / in life observation…
[23] = systemic / in life observation / clinical signs / defecation (diarrhea) + systemic / in life observation / clinical signs / feces, …
[24] = systemic / in life observation / clinical signs / feces, discoloration
[25] = systemic / in life observation / mortality / mortality + systemic / pathology microscopic / kidney / degeneration + systemic / pathology …
[26] = systemic / in life observation / clinical signs / defecation (diarrhea) + systemic / in life observation / clinical signs / lethargy + …
[27] = systemic / pathology microscopic / kidney / hyperplasia + systemic / pathology microscopic / kidney / nephropathy
[28] = systemic / pathology microscopic / kidney / hyperplasia + systemic / pathology microscopic / kidney / nephropathy + systemic / in life …
[29] = group: developmental, developmental / developmental malformation / bone / wavy
[30] = group: maternal, systemic / in life observation / body weight / body weight gain
[31] = group: maternal, systemic / in life observation / body weight / body weight gain + systemic / in life observation / food consumption / food consumption
[32] = group: offspring, systemic / in life observation / body weight / offspring (pup) weight
[33] = group: parental, systemic / in life observation / body weight / body weight gain
[34] = systemic / pathology microscopic / thyroid gland / mineralization
[35] = systemic / pathology microscopic / thyroid gland / mineralization + systemic / in life observation / body weight / body weight + systemic / …
[36] = group: developmental, developmental / developmental malformation / bone / absent + developmental / developmental malformation / bone / fused + developmental / …
[37] = group: maternal, systemic / in life observation / body weight / body weight gain + reproductive / reproductive performance / aborted / aborted + reproductive…
[38] = systemic / in life observation / body weight / body weight + systemic / in life observation / body weight / body weight gain + systemic / in…

## CC(N)c1cc(F)ccc1Oc1ccc(Cl)c(Cl)c1 (stereo unspecified)
Dog [1]; [16]
  LOAEL: > 100 mg/kg/day
  NOAEL: ≥ 100 mg/kg/day
Dog [1]; [17]
  LEL: 3 mg/kg/day
  NEL: < 3 mg/kg/day
Rat [2]
  LEL: 3 mg/kg/day
  LOAEL: > 150 mg/kg/day
  NEL: < 3 mg/kg/day
  NOAEL: ≥ 150 mg/kg/day

## CN[C@H]1CC[C@@H](c2ccc(Cl)c(Cl)c2)c2ccc(S(N)(=O)=O)cc21
Dog [3]
  LEL: 5 mg/kg/day
  LOAEL: > 60 mg/kg/day
  NEL: < 5 mg/kg/day
  NOAEL: ≥ 60 mg/kg/day
Rat [4]; [18]
  LOAEL: > 320 mg/kg/day
  NOAEL: ≥ 320 mg/kg/day
Rat [4]; [19]
  LEL: 40 mg/kg/day
  NEL: < 40 mg/kg/day
Dog [5]; [20]
  LOAEL: > 160 mg/kg/day
  NOAEL: ≥ 160 mg/kg/day
Dog [5]; [21]
  LEL: 40 mg/kg/day
  NEL: 20 mg/kg/day
Rat [6]; systemic / in life observation / clinical signs / salivation + systemic / organ weight / liver / absolute
  NEL: 20 mg/kg/day
Rat [6]; [22]
  LEL: 60 mg/kg/day
  LOAEL: > 60 mg/kg/day
  NOAEL: ≥ 60 mg/kg/day

## COc1ccc(C(=O)Nc2nc3ccccc3c(NCc3ccccc3)c2C#N)cc1
Dog [7]; [23]
  LOAEL: 1500 mg/kg/day
  NOAEL: 750 mg/kg/day
Dog [7]; [24]
  LEL: 300 mg/kg/day
  NEL: < 300 mg/kg/day

## Nc1cc([N+](=O)[O-])ccc1O [2-Amino-4-nitrophenol]
Mouse [8]; systemic / in life observation / mortality / mortality
  LEL: 500 mg/kg/day
Mouse [8]; [25]
  LOAEL: > 1000 mg/kg/day
  NEL: 250 mg/kg/day
  NOAEL: ≥ 1000 mg/kg/day
Rat [9]; [26]
  LOAEL: > 1000 mg/kg/day
  NEL: 125 mg/kg/day
  NOAEL: ≥ 1000 mg/kg/day
Rat [9]; systemic / organ weight / liver / absolute
  LEL: 250 mg/kg/day
Rat [10]; [27]
  LOAEL: 125 mg/kg/day
  NOAEL: < 125 mg/kg/day
Rat [10]; [28]
  LEL: 125 mg/kg/day
  NEL: < 125 mg/kg/day

## O=[N+]([O-])/N=C1\NCCN1Cc1ccc(Cl)nc1 [Imidacloprid]
Rat [11]; [29]
  LEL: 100 mg/kg/day
  LOAEL: 100 mg/kg/day
  NEL: 30 mg/kg/day
  NOAEL: 30 mg/kg/day
Rat [11]; [30]
  LEL: 30 mg/kg/day
  LOAEL: 30 mg/kg/day
Rat [11]; [31]
  NEL: 10 mg/kg/day
  NOAEL: 10 mg/kg/day
Rat [12]; [32]
  LEL: 47.3 mg/kg/day
  LOAEL: 47.3 mg/kg/day
  NEL: 16.5 mg/kg/day
  NOAEL: 16.5 mg/kg/day
Rat [12]; [33]
  LEL: 52.3 mg/kg/day
  LOAEL: 52.3 mg/kg/day
  NEL: 18.9 mg/kg/day
  NOAEL: 18.9 mg/kg/day
Rat [13]; [34]
  LEL: 16.9 mg/kg/day
  LOAEL: 16.9 mg/kg/day
Rat [13]; [35]
  NEL: 5.7 mg/kg/day
  NOAEL: 5.7 mg/kg/day
rabbit; [36]
  LEL: 72 mg/kg/day
  LOAEL: 72 mg/kg/day
  NEL: 24 mg/kg/day
  NOAEL: 24 mg/kg/day
rabbit; [30]
  LEL: 24 mg/kg/day
rabbit; [37]
  NEL: 8 mg/kg/day
  NOAEL: 24 mg/kg/day
rabbit; group: maternal, systemic / in life observation / body weight / body weight gain + reproductive / reproductive performance / postimplantation loss / …
  LOAEL: 72 mg/kg/day
Dog [14]
  LEL: 72 mg/kg/day
  LOAEL: > 72 mg/kg/day
  NEL: 15 mg/kg/day
  NOAEL: ≥ 72 mg/kg/day
Mouse [15]; [38]
  LOAEL: 414 mg/kg/day
  NEL: 66 mg/kg/day
  NOAEL: 208 mg/kg/day
Mouse [15]; systemic / in life observation / body weight / body weight gain
  LEL: 208 mg/kg/day
